The source of these data is patent US11753397B2, “Cereblon binders for the degradation of ikaros” (C4 Therapeutics, Inc., priority 2018, dated 2023).

Structures can show the parent of a compound that is named as a salt. Some results are limits rather than exact numbers.

For this experiment, the system named is NCIH929.1 cells. In words: Cell viability assay (CellTiter-Glo 2.0, ATP quantification). The format is cell-based. Particulars: NCIH929.1 cell viability, CellTiter-Glo 2.0, 96 hr incubation, top concentration 1 μM. The method in brief:
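Cells seeded at 750/well in RPMI with 10% FBS and 0.05 mM 2-mercaptoethanol, exposed 96 h at 37 °C to 10-point half-log dilutions in duplicate, top 1 μM. Viability by CellTiter-Glo 2.0 ATP luminescence, with a day-0 read as cytostatic baseline (CT0).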
(Cellular ATP, detected with luciferase, serves as a proxy for viable cell number.)
As to `O=C1CCC(N2C(=O)c3cccc(NCc4cnn(C5CCN(C(=O)OCc6ccccc6)CC5)c4)c3C2=O)C(=O)N1` (stereo not shown) [Compound 146, benzyl 4-(4-(((2-(2,6-dioxopiperidin-3-yl)-1,3-dioxoisoindolin-4-yl)amino)methyl)-1H-pyrazol-1-yl)piperidine-1-carboxylate], the GI50 – broadly, the concentration at which growth is held to half of that of the control – was < 100 nM.
On to `CCOC(=O)N1CCC(n2cc(CNc3cccc4c3C(=O)N(C3CCC(=O)NC3=O)C4=O)cn2)CC1` (stereo not shown) [Compound 147, ethyl 4-(4-(((2-(2,6-dioxopiperidin-3-yl)-1,3-dioxoisoindolin-4-yl)amino)methyl)-1H-pyrazol-1-yl)piperidine-1-carboxylate], for which the GI50 was < 100 nM.
With `O=C1CCC(N2C(=O)c3cccc(NCc4cnn(C5CCN(C(=O)OCC(Cl)(Cl)Cl)CC5)c4)c3C2=O)C(=O)N1` (stereo not shown) [Compound 148, 2,2,2-trichloroethyl 4-(4-(((2-(2,6-dioxopiperidin-3-yl)-1,3-dioxoisoindolin-4-yl)amino)methyl)-1H-pyrazol-1-yl)piperidine-1-carboxylate], the GI50 is < 100 nM.
As to `CC(C)(C)COC(=O)N1CCC(n2cc(CNc3cccc4c3C(=O)N(C3CCC(=O)NC3=O)C4=O)cn2)CC1` (stereo not shown) [Compound 149, neopentyl 4-(4-(((2-(2,6-dioxopiperidin-3-yl)-1,3-dioxoisoindolin-4-yl)amino)methyl)-1H-pyrazol-1-yl)piperidine-1-carboxylate], the GI50 was < 1 nM.
The value for `O=C1CCC(N2C(=O)c3cccc(NCc4cnn(C5CCCC5)c4)c3C2=O)C(=O)N1` (stereo not shown) [Compound 151, 4-[(1-cyclopentylpyrazol-4-yl)methylamino]-2-(2,6-dioxo-3-piperidyl)isoindoline-1,3-dione] was < 100 nM.
The value for `CC(C)n1cc(CNc2cccc3c2C(=O)N(C2CCC(=O)NC2=O)C3=O)cn1` (stereo not shown) [Compound 152, 2-(2,6-dioxo-3-piperidyl)-4-[(1-isopropylpyrazol-4-yl)methylamino]isoindoline-1,3-dione] was < 100 nM; that for `O=C1CCC(N2C(=O)c3cccc(NCc4cnn(CC(F)(F)F)c4)c3C2=O)C(=O)N1` (stereo not shown) [Compound 153, 2-(2,6-dioxo-3-piperidyl)-4-[[1-(2,2,2-trifluoroethyl)pyrazol-4-yl]methylamino]isoindoline-1,3-dione] was < 100 nM.
For `CN(CCCn1cc(CNc2cccc3c2C(=O)N(C2CCC(=O)NC2=O)C3=O)cn1)C(=O)OC(C)(C)C` (stereo not shown) [Compound 154, tert-butyl N-[3-[4-[[[2-(2,6-dioxo-3-piperidyl)-1,3-dioxo-isoindolin-4-yl]amino]methyl]pyrazol-1-yl]propyl]-N-methyl-carbamate], the GI50 is < 100 nM.
For the compound `O=C1CCC(N2C(=O)c3cccc(NCc4cnn(CC5CCOCC5)c4)c3C2=O)C(=O)N1` (stereo not shown) [Compound 155, 2-(2,6-dioxo-3-piperidyl)-4-[[1-(tetrahydropyran-4-ylmethyl)pyrazol-4-yl]methylamino]isoindoline-1,3-dione], the GI50 was < 100 nM.
Take `CC(=O)N1C2CCC1CC(n1cc(CNc3cccc4c3C(=O)N(C3CCC(=O)NC3=O)C4=O)cn1)C2` (stereo not shown) [Compound 156, 4-[[1-(8-acetyl-8-azabicyclo[3.2.1]octan-3-yl)pyrazol-4-yl]methylamino]-2-(2,6-dioxo-3-piperidyl)isoindoline-1,3-dione]: the GI50 was < 100 nM.
On to `CN1CCC(n2cc(CNc3cccc4c3C(=O)N(C3CCC(=O)NC3=O)C4=O)cn2)CC1` (stereo not shown) [Compound 157, 2-(2,6-dioxo-3-piperidyl)-4-[[1-(1-methyl-4-piperidyl)pyrazol-4-yl]methylamino]isoindoline-1,3-dione], for which the GI50 is < 100 nM.
Take `O=C1CCC(N2C(=O)c3cccc(NCc4cnn(C5CCCCC5)c4)c3C2=O)C(=O)N1` (stereo not shown) [Compound 158, 4-[(1-cyclohexylpyrazol-4-yl)methylamino]-2-(2,6-dioxo-3-piperidyl)isoindoline-1,3-dione]: the GI50 is < 100 nM.
Under `CC(=O)N1CCC(n2cc(CNc3cccc4c3C(=O)N(C3CCC(=O)NC3=O)C4=O)cn2)CC1` (stereo not shown) [Compound 159, 4-[[1-(1-acetyl-4-piperidyl)pyrazol-4-yl]methylamino]-2-(2,6-dioxo-3-piperidyl)isoindoline-1,3-dione] stands < 100 nM.
Take `O=C1CCC(N2C(=O)c3cccc(NCc4cnn(C5CCN(CC(F)(F)F)CC5)c4)c3C2=O)C(=O)N1` (stereo not shown) [Compound 160, 2-(2,6-Dioxo-piperidin-3-yl)-4-({1-[1-(2,2,2-trifluoro-ethyl)-piperidin-4-yl]-1H-pyrazol-4-ylmethyl}-amino)-isoindole-1,3-dione]: the GI50 was < 100 nM.
In the case of `CC(C)(C)NC(=O)N1CCC(n2cc(CNc3cccc4c3C(=O)N(C3CCC(=O)NC3=O)C4=O)cn2)CC1` (stereo not shown) [Compound 161, 4-(4-{[2-(2,6-Dioxo-piperidin-3-yl)-1,3-dioxo-2,3-dihydro-1H-isoindol-4-ylamino]-methyl}-pyrazol-1-yl)-piperidine-1-carboxylic acid tert-butylamide], the GI50 is < 100 nM.
The value for `O=C1CCC(N2C(=O)c3cccc(NCc4cnn(C5CC5)c4)c3C2=O)C(=O)N1` (stereo not shown) [Compound 163, 4-[(1-Cyclopropyl-1H-pyrazol-4-ylmethyl)-amino]-2-(2,6-dioxo-piperidin-3-yl)-isoindole-1,3-dione] was < 100 nM; that for `O=C1CCC(N2C(=O)c3cccc(NCc4cnn(C5CCN(C(=O)OCC(F)(F)F)CC5)c4)c3C2=O)C(=O)N1` (stereo not shown) [Compound 165, 4-(4-{[2-(2,6-Dioxo-piperidin-3-yl)-1,3-dioxo-2,3-dihydro-1H-isoindol-4-ylamino]-methyl}-pyrazol-1-yl)-piperidine-1-carboxylic acid 2,2,2-trifluoro-ethyl ester] was < 100 nM.
As to `CC(C)(C)OC(=O)N1C2CCC1CC(n1cc(CNc3cccc4c3C(=O)N(C3CCC(=O)NC3=O)C4=O)cn1)C2` (stereo not shown) [Compound 166, tert-Butyl 3-(4-(((2-(2,6-dioxopiperidin-3-yl)-1,3-dioxoisoindolin-4-yl)amino)methyl)-1H-pyrazol-1-yl)-8-azabicyclo[3.2.1]octane-8-carboxylate], the GI50 was < 100 nM.
In the case of `CC(C)(C)OC(=O)N1CC2(CC(n3cc(CNc4cccc5c4C(=O)N(C4CCC(=O)NC4=O)C5=O)cn3)C2)C1` (stereo not shown) [Compound 167, tert-Butyl 6-(4-(((2-(2,6-dioxopiperidin-3-yl)-1,3-dioxoisoindolin-4-yl)amino)methyl)-1H-pyrazol-1-yl)-2-azaspiro[3.3]heptane-2-carboxylate], the GI50 is < 100 nM.
The value for `CC1CC(n2cc(CNc3cccc4c3C(=O)N(C3CCC(=O)NC3=O)C4=O)cn2)CC(C)N1C(=O)OC(C)(C)C` (stereo not shown) [Compound 168, tert-Butyl 4-(4-(((2-(2,6-dioxopiperidin-3-yl)-1,3-dioxoisoindolin-4-yl)amino)methyl)-1H-pyrazol-1-yl)-2,6-dimethylpiperidine-1-carboxylate] was < 100 nM.
Take `CC(C)(C)OC(=O)N1CCC(n2cc(CNc3cccc4c3C(=O)N(C3CCC(=O)NC3=O)C4=O)cn2)CC1(C)C` (stereo not shown) [Compound 169, tert-Butyl 4-(4-(((2-(2,6-dioxopiperidin-3-yl)-1,3-dioxoisoindolin-4-yl)amino)methyl)-1H-pyrazol-1-yl)-2,2-dimethylpiperidine-1-carboxylate]: the GI50 is < 1 nM.
The value for `O=C1CCC(N2C(=O)c3cccc(NCc4cnn([C@H]5CC[C@H](C(=O)N6CCCCC6)CC5)c4)c3C2=O)C(=O)N1` (stereo partly shown) [Compound 170, 2-(2,6-Dioxopiperidin-3-yl)-4-(((1-((1r,4r)-4-(piperidine-1-carbonyl)cyclohexyl)-1H-pyrazol-4-yl)methyl)amino)isoindoline-1,3-dione] was < 100 nM; that for `Cc1nn(C2CCN(C(=O)C3(C)CCC3)CC2)c(C)c1CNc1cccc2c1C(=O)N(C1CCC(=O)NC1=O)C2=O` (stereo not shown) [Compound 171, 4-(((3,5-Dimethyl-1-(1-(1-methylcyclobutane-1-carbonyl)piperidin-4-yl)-1H-pyrazol-4-yl)methyl)amino)-2-(2,6-dioxopiperidin-3-yl)isoindoline-1,3-dione] was < 100 nM; that for `CC1(C(=O)N2CCC(c3ccccc3)(n3cc(CNc4cccc5c4C(=O)N(C4CCC(=O)NC4=O)C5=O)cn3)CC2)CCC1` (stereo not shown) [Compound 172, 2-(2,6-Dioxopiperidin-3-yl)-4-(((1-(1-(1-methylcyclobutane-1-carbonyl)-4-phenylpiperidin-4-yl)-1H-pyrazol-4-yl)methyl)amino)isoindoline-1,3-dione] was < 100 nM.
The value for `CC1(C(=O)N2CCC(C)(n3cc(CNc4cccc5c4C(=O)N(C4CCC(=O)NC4=O)C5=O)cn3)CC2)CCC1` (stereo not shown) [Compound 173, 2-(2,6-Dioxopiperidin-3-yl)-4-(((1-(4-methyl-1-(1-methylcyclobutane-1-carbonyl)piperidin-4-yl)-1H-pyrazol-4-yl)methyl)amino)isoindoline-1,3-dione] was < 100 nM; that for `CC(Nc1cccc2c1C(=O)N(C1CCC(=O)NC1=O)C2=O)c1cnn(C2CCN(C(=O)OC(C)(C)C)CC2)c1` (stereo not shown) [Compound 174, tert-Butyl 4-(4-(1-((2-(2,6-dioxopiperidin-3-yl)-1,3-dioxoisoindolin-4-yl)amino)ethyl)-1H-pyrazol-1-yl)piperidine-1-carboxylate] was < 100 nM; that for `NC1(C(=O)N2CCC(n3cc(CNc4cccc5c4C(=O)N(C4CCC(=O)NC4=O)C5=O)cn3)CC2)CCC1` (stereo not shown) [Compound 175, 4-[[1-[1-(1-aminocyclobutanecarbonyl)-4-piperidyl]pyrazol-4-yl]methylamino]-2-(2,6-dioxo-3-piperidyl)isoindoline-1,3-dione hydrochloride] was < 100 nM.
Take `CC(C)(C)OC(=O)N1CCC(n2cc(CNc3cccc4c3C(=O)N(C3CCC(=O)NC3=O)C4=O)cn2)C(F)(F)C1` (stereo not shown) [Compound 176, tert-Butyl 4-(4-(((2-(2,6-dioxopiperidin-3-yl)-1,3-dioxoisoindolin-4-yl)amino)methyl)-1H-pyrazol-1-yl)-3,3-difluoropiperidine-1-carboxylate]: the GI50 is < 100 nM.
